Experimental data as given in patent US12139520B2 (priority 2020, dated 2024).
Bridge positions count the residues as written; N and C are the ends. Square brackets hold non-standard residues; d marks the D form. Peptide text beside a SMILES is read from it. Hyp = O=C(O)[C@@H]1C[C@@H](O)CN1; Cit = NC(=O)NCCC[C@H](N)C(=O)O

Key:
[1] = biological target: T1, hAMY3 receptor (Homo sapiens, UniProt O60896+P30988); assay: cAMP assay for in vitro receptor activation, hAMY3-R; type: cell-based; details: cAMP assay, hAMY3 receptor; read-out: hAMY3R EC50
T1 sequence (P30988 25-474): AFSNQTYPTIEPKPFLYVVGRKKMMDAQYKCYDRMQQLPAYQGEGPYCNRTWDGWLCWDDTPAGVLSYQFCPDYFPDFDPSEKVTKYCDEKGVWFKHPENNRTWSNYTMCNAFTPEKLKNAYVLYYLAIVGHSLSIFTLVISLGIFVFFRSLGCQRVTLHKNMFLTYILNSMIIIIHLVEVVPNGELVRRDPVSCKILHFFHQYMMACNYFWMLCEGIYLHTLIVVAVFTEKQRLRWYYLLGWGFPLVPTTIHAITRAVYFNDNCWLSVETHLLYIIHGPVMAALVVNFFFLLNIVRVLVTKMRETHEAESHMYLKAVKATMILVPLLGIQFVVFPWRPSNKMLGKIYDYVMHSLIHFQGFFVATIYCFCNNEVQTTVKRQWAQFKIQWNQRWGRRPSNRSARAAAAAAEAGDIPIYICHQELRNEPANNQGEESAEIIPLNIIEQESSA
T1 sequence (O60896 24-148 partner): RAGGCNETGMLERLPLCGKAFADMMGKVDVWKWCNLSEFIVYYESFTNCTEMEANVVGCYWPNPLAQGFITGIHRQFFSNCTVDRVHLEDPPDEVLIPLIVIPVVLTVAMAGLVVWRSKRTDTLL
Procedure, shortened: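 Graded compound concentrations were applied for 30 min at room temperature to stably hAMY3-expressing cells in DPBS, 0.05% casein, 0.5 mM IBMX; cAMP detected by TR-FRET.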

[2] = Physical stability of peptide analogues (Thioflavin T fibrillation); type: physicochemical; details: maximum ThT signal normalized between hAMY maximum and buffer background; 40° C., shaking, four days; pH 7 per table title
Procedure, shortened: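 1 h in 50 mM NaOAc pH 4 / 50 mM NaPi pH 7; + ThT 4 μM final; 40 °C, 700 rpm linear shake 5 min pre-read; ex 450, em 480 nm q10 min × 4 d; LOESS smoothing; max signal normalised to hAMY max vs buffer blank.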

Row | Structure (SMILES) | EC50 [1] [nM] | Max ThT signal (%) [2] [%]
1 | CC[C@H](C)[C@H](NC(=O)[C@H](CCC(N)=O)NC(=O)[C@H](Cc1c[nH]cn1)NC(=O)[C@H](C)NC(=O)[C@H](CC(C)C)NC(=O)[C@H](CCCNC(=N)N)NC(=O)[C@H](CCC(N)=O)NC(=O)[C@@H](NC(=O)[C@@H](NC(=O)[C@@H]1CSSC[C@H](NC(=O)[C@@H](N)CCCCN)C(=O)N[C@@H](CCCNC(=N)N)C(=O)N[C@@H](Cc2ccccc2)C(=O)NCC(=O)N[C@@H]([C@@H](C)O)C(=O)N1)[C@@H](C)O)C(C)C)C(=O)N[C@@H](Cc1ccc(O)cc1)C(=O)N[C@@H](CCC(N)=O)C(=O)N[C@@H](Cc1ccccc1)C(=O)N[C@H](C(=O)N[C@@H](CC(=O)O)C(=O)N[C@@H](CCCCN)C(=O)N[C@@H](CC(=O)O)C(=O)N[C@@H](CCCCN)C(=O)N[C@@H](CC(=O)O)C(=O)N[C@@H](CC(N)=O)C(=O)N[C@H](C(=O)N[C@@H](C)C(=O)N1CCC[C@H]1C(=O)N[C@@H](CCCNC(=N)N)C(=O)N[C@@H](CO)C(=O)N[C@@H](CCCCN)C(=O)N[C@H](C(=O)N[C@@H](CO)C(=O)N1CCC[C@H]1C(=O)N[C@@H](CCC(N)=O)C(=O)N[C@H](C(=O)N1C[C@H](O)C[C@H]1C(N)=O)[C@@H](C)O)[C@@H](C)CC)C(C)C)[C@@H](C)O [compound 205] (H-KCRFGTCTVQRLAHQIYQFTDKDKDNVAPRSKISPQT[Hyp]-NH2; disulfide 2-7; N-terminus assumed) | 0.13 | 7.800
2 | CC[C@H](C)[C@H](NC(=O)[C@H](CCC(N)=O)NC(=O)[C@H](Cc1c[nH]cn1)NC(=O)[C@H](C)NC(=O)[C@H](CC(C)C)NC(=O)[C@H](CCCNC(N)=O)NC(=O)[C@H](CCC(N)=O)NC(=O)[C@@H](NC(=O)[C@@H](NC(=O)[C@@H]1CSSC[C@H](NC(=O)[C@@H](N)CCCCN)C(=O)N[C@@H](CC(N)=O)C(=O)N[C@@H]([C@@H](C)O)C(=O)N[C@@H](C)C(=O)N[C@@H]([C@@H](C)O)C(=O)N1)[C@@H](C)O)C(C)C)C(=O)N[C@@H](Cc1ccc(O)cc1)C(=O)N[C@@H](CCC(N)=O)C(=O)N[C@@H](Cc1ccccc1)C(=O)N[C@H](C(=O)N[C@@H](CC(=O)O)C(=O)N[C@@H](CCCCN)C(=O)N[C@@H](CC(=O)O)C(=O)N[C@@H](CCCCN)C(=O)N[C@@H](CC(=O)O)C(=O)N[C@@H](CC(N)=O)C(=O)N[C@H](C(=O)N[C@@H](C)C(=O)N1CCC[C@H]1C(=O)N[C@@H](CCCNC(=N)N)C(=O)N[C@H](C(=O)N[C@@H](CCCCN)C(=O)N[C@H](C(=O)NCC(=O)N[C@@H](CO)C(=O)N[C@@H](CC(N)=O)C(=O)NCC(=O)N1C[C@H](O)C[C@H]1C(N)=O)C(C)C)[C@@H](C)O)C(C)C)[C@@H](C)O [compound 248] (H-KCNTATCTVQ[Cit]LAHQIYQFTDKDKDNVAPRTKVGSNG[Hyp]-NH2; disulfide 2-7; N-terminus assumed) | 0.027 | 13.600
3 | CC[C@H](C)[C@H](NC(=O)[C@H](CCC(N)=O)NC(=O)[C@H](Cc1c[nH]cn1)NC(=O)[C@H](C)NC(=O)[C@H](CC(C)C)NC(=O)[C@H](CCCNC(=N)N)NC(=O)[C@H](CCC(N)=O)NC(=O)[C@@H](NC(=O)[C@@H](NC(=O)[C@@H]1CSSC[C@H](NC(=O)CN)C(=O)N[C@@H](CCCNC(=N)N)C(=O)N[C@@H]([C@@H](C)O)C(=O)NCC(=O)N[C@@H]([C@@H](C)O)C(=O)N1)[C@@H](C)O)C(C)C)C(=O)N[C@@H](Cc1ccc(O)cc1)C(=O)N[C@@H](CCC(N)=O)C(=O)N[C@@H](Cc1ccccc1)C(=O)N[C@H](C(=O)N[C@@H](CC(=O)O)C(=O)N[C@@H](CCCCN)C(=O)N[C@@H](CC(=O)O)C(=O)N[C@@H](CCCCN)C(=O)N[C@@H](CC(=O)O)C(=O)N[C@@H](CC(N)=O)C(=O)N[C@H](C(=O)N[C@@H](C)C(=O)N1CCC[C@H]1C(=O)N[C@@H](CCCNC(=N)N)C(=O)N[C@H](C(=O)N[C@@H](CC(N)=O)C(=O)N[C@H](C(=O)NCC(=O)N1CCC[C@H]1C(=O)N[C@@H](CC(N)=O)C(=O)NCC(=O)N[C@@H](Cc1ccc(O)cc1)C(N)=O)C(C)C)[C@@H](C)O)C(C)C)[C@@H](C)O [compound 84] (H-GCRTGTCTVQRLAHQIYQFTDKDKDNVAPRTNVGPNGY-NH2; disulfide 2-7; N-terminus assumed) | 0.015 | 14.200

The remaining lines, values ahead:

Row | EC50 [1] [nM] | Max ThT signal (%) [2] [%] | Structure (SMILES)
4 | 0.029 | 18.700 | CC[C@H](C)[C@H](NC(=O)[C@H](CCCCN)NC(=O)[C@@H](NC(=O)[C@H](CCCNC(=N)N)NC(=O)[C@@H]1CCCN1C(=O)[C@H](C)NC(=O)[C@@H](NC(=O)[C@H](CC(N)=O)NC(=O)[C@H](CC(=O)O)NC(=O)[C@H](CCCCN)NC(=O)[C@H](CC(=O)O)NC(=O)[C@H](CCCCN)NC(=O)[C@H](CC(=O)O)NC(=O)[C@@H](NC(=O)[C@H](Cc1ccccc1)NC(=O)[C@H](CCC(N)=O)NC(=O)[C@H](Cc1ccc(O)cc1)NC(=O)[C@@H](NC(=O)[C@H](CCC(N)=O)NC(=O)[C@H](Cc1c[nH]cn1)NC(=O)[C@H](C)NC(=O)[C@H](CC(C)C)NC(=O)[C@H](Cc1c[nH]c2ccccc12)NC(=O)[C@H](CCC(N)=O)NC(=O)[C@@H](NC(=O)[C@@H](NC(=O)[C@@H]1CSSC[C@H](NC(=O)CN)C(=O)N[C@@H](CCCNC(=N)N)C(=O)N[C@@H](Cc2ccccc2)C(=O)NCC(=O)N[C@@H]([C@@H](C)O)C(=O)N1)[C@@H](C)O)C(C)C)[C@@H](C)CC)[C@@H](C)O)C(C)C)[C@@H](C)O)C(=O)NCC(=O)N1CCC[C@H]1C(=O)N[C@@H](CCC(N)=O)C(=O)NCC(=O)N1C[C@H](O)C[C@H]1C(N)=O [compound 336] (H-GCRFGTCTVQWLAHQIYQFTDKDKDNVAPRTKIGPQG[Hyp]-NH2; disulfide 2-7; N-terminus assumed)
5 | 0.005 | 1.050 | CC(C)C[C@H](NC(=O)[C@H](CCCNC(N)=O)NC(=O)[C@H](CCC(N)=O)NC(=O)[C@@H](NC(=O)[C@@H](NC(=O)[C@@H]1CSSC[C@H](NC(=O)CN)C(=O)N[C@@H](CCCNC(=N)N)C(=O)N[C@@H](Cc2ccccc2)C(=O)NCC(=O)N[C@@H]([C@@H](C)O)C(=O)N1)[C@@H](C)O)C(C)C)C(=O)N[C@@H](C)C(=O)N[C@@H](Cc1c[nH]cn1)C(=O)N[C@@H](Cc1ccccc1)C(=O)N[C@@H](CC(C)C)C(=O)N[C@@H](Cc1ccc(O)cc1)C(=O)N[C@@H](CCC(N)=O)C(=O)N[C@@H](Cc1ccccc1)C(=O)N[C@H](C(=O)N[C@@H](CC(=O)O)C(=O)N[C@@H](CCCCN)C(=O)N[C@@H](CC(=O)O)C(=O)N[C@@H](CCCCN)C(=O)N[C@@H](CC(=O)O)C(=O)N[C@@H](CC(N)=O)C(=O)N[C@H](C(=O)N[C@@H](C)C(=O)N1CCC[C@H]1C(=O)N[C@@H](CCCNC(=N)N)C(=O)N[C@H](C(=O)N[C@@H](CC(N)=O)C(=O)N[C@H](C(=O)NCC(=O)N1CCC[C@H]1C(=O)N[C@@H](CCC(N)=O)C(=O)NCC(=O)N[C@@H](Cc1ccc(O)cc1)C(N)=O)C(C)C)[C@@H](C)O)C(C)C)[C@@H](C)O [compound 263] (H-GCRFGTCTVQ[Cit]LAHFLYQFTDKDKDNVAPRTNVGPQGY-NH2; disulfide 2-7; N-terminus assumed)
6 | 0.007 | 8.900 | CC[C@H](C)[C@H](NC(=O)[C@H](CCC(N)=O)NC(=O)[C@H](Cc1c[nH]cn1)NC(=O)[C@H](C)NC(=O)[C@H](CC(C)C)NC(=O)[C@H](CCCNC(=N)N)NC(=O)[C@H](CCC(N)=O)NC(=O)[C@@H](NC(=O)[C@@H](NC(=O)[C@@H]1CSSC[C@H](NC(=O)CN)C(=O)N[C@@H](CCCNC(=N)N)C(=O)N[C@@H](Cc2ccccc2)C(=O)NCC(=O)N[C@@H]([C@@H](C)O)C(=O)N1)[C@@H](C)O)C(C)C)C(=O)N[C@@H](Cc1ccc(O)cc1)C(=O)N[C@@H](CCC(N)=O)C(=O)N[C@@H](Cc1ccccc1)C(=O)N[C@H](C(=O)N[C@@H](CC(=O)O)C(=O)N[C@@H](CCCCN)C(=O)N[C@@H](CC(=O)O)C(=O)N[C@@H](CCCCN)C(=O)N[C@@H](CC(=O)O)C(=O)N[C@@H](CC(N)=O)C(=O)N[C@H](C(=O)N[C@@H](C)C(=O)N1CCC[C@H]1C(=O)N[C@@H](CCCNC(=N)N)C(=O)N[C@H](C(=O)N[C@@H](CC(N)=O)C(=O)N[C@H](C(=O)NCC(=O)N1CCC[C@H]1C(=O)N[C@@H](CCC(N)=O)C(=O)NCC(=O)N[C@@H](Cc1ccc(O)cc1)C(N)=O)C(C)C)[C@@H](C)O)C(C)C)[C@@H](C)O [compound 362] (H-GCRFGTCTVQRLAHQIYQFTDKDKDNVAPRTNVGPQGY-NH2; disulfide 2-7)
